Test results reported in patent publication US4371544A, “Pharmaceutical composition containing 1,1,3,5-substituted biuret compound” (Taiho Pharmaceutical Company Limited, priority 1979, dated 1983).

What was measured:
ddy strain of male mice [1] = test: Analgesic activity, acetic acid-induced stretching method; format: in vivo, mouse (ddy); conditions: for inhibition in vivo at 100 mg/kg / inhibition in vivo at 200 mg/kg: read-out: Analgesic activity, acetic acid-induced stretching method, inhibitory ratio
Method: (§1) Next, several tests for determining the pharmacological properties, in that acute toxicity, anti-pyretic activity, analgesic activity and anti-inflammatory activity of the present 1,1,3,5-substituted biuret compounds of the formula (1) were conducted and the test results are shown in Table (2). In the tests, each compounds to be tested was used as a suspension in 0.25% carboxymethylcellulose solution. Methods for testing are explained as follows:
According to the method reported by Koster et al., [Fed. Proc., Vol. 18, pp. 412 (1959)], the ddy strain of male mice (body weight, 20-25 g) were used as test animals. The mice were fasted overnight, 100 mg/kg body weight of the test compound was administered orally, then 1 hour after the administration, 0.2 ml of 0.7% acetic acid solution was injected intraperitoneally. The acetic acid-induced stretching symptom of mouse was observed. Analgesic activity of the test compound was calculated as the inhibitory ratio (%). In Table 2, the values in parentheses show the data obtained from the test by using the dosage other than 100 mg/kg body weight. Further, the values indicated with Δ marks show 50% effective dose, ED50 (mg/kg body weight).

ddy strain of male mice [2] = test: Acute toxicity (oral, mice, 7 days observation); format: in vivo
Method: as §1
The ddy strain of male mice (body weight, 20-25 g) were used as test animals. The mice were fasted overnight and the compound to be tested was administered orally. […] The lethal dose (mg/kg, body weight) of the test compound was determined in connection with the death number of mice/the number of mice tested. In Table 2, the values indicated with Δ marks are 50% lethal dose, LD50 (mg/kg, body weight).

ddy strain of male mice [3] = test: Analgesic activity, Haffner method (morphine threshold dose, clamp); format: in vivo, mouse (ddy); conditions: for ED50 / inhibition in vivo at 100 mg/kg: Mus musculus; for ED50: oral, Δ mark, range in parentheses; for inhibition in vivo at 100 mg/kg: read-out: Analgesic activity, Haffner method, inhibitory ratio
Method: as §1
According to the modified method reported by Fujimura et. al., [Bulletin of the Institute for Chemical Research, Kyoto University, No. 25, pp. 36 (1951)], the ddy strain of male mice (body weight, 20-25 g) were used as test animals. The mice were fasted overnight, 100 mg/kg body weight of the test compound was administered orally, then 45 minutes after the administration, the threshold amount (1.5-2.5 mg/kg body weight) of morphine hydrochloride was injected subcutaneously. Then 1-hour pain reaction of the mouse caused by a clamp was observed. Analgesic activity of the test compound was calculated as the inhibitory ratio (%). In Table 2, the values in parentheses show the data obtained from the test by using the dosage other than 100 mg/kg body weight. Further, the values indicated with Δ marks show 50% effective dose, ED50 (mg/kg body weight).

[4] = system: Wistar strain of male rats; test: Anti-pyretic activity (dry-yeast-induced fever); format: in vivo, rat (Wistar); conditions: oral (dose not given), up to 4 hours after administration
Method: as §1
According to the method reported by Tanabe [Folia Pharmacologia Japonica, Vol. 73, pp. 803 (1977)], the Wistar strain of male rats (150-180 g, body weight) were used as test animals. The rats were fasted overnight, and 1 ml/100 g (body weight) of 10% dry-yeast suspension were subcutaneously injected on the back of the rats. Five hours after the injection, the test compound was administered orally, then the body temperature of the rat was measured at time sequences. Anti-pyretic activity of the test compound was determined as the FI (febril index) by integrating pyrogenetic curve up to 4 hours after the administration of the test compound with time, and indicated as inhibitory ratio (%) shown by the following formula, [formula]

[5] = 100 mg/kg oral, 45 minutes before morphine hydrochloride
[6] = 100 mg/kg oral, 1 hour before acetic acid

SMILES | Acute toxicity: death number of mice/number of mice tested (ddy strain of male mice [2]; 2000 mg/kg oral) | Analgesic activity, Haffner method, inhibitory ratio (ddy strain of male mice [3]; [5]) [%] | Analgesic activity, acetic acid-induced stretching method, inhibitory ratio (ddy strain of male mice [1]; [6]) [%] | Acute toxicity: death number of mice/number of mice tested (ddy strain of male mice [2]; 1000 mg/kg oral) | Anti-pyretic activity, inhibitory ratio (febril index) [4] [%] | other results
CN(C)C(=O)NC(=O)Nc1ccccc1F [Compound No. 2, 1,1-Dimethyl-5-(2-fluorophenyl)biuret] | 0/4 | – | – | – | – | inhibition in vivo at 100 mg/kg (ddy strain of male mice [1]; Mus musculus, 100 mg/kg oral, 1 hour before acetic acid): 40%
CN(C)C(=O)NC(=O)Nc1ccc(Cl)cc1 [Compound No. 3] | 0/4 | – | – | – | – | inhibition in vivo at 100 mg/kg (ddy strain of male mice [1]; Mus musculus, po): 50%
CN(C)C(=O)N(C)C(=O)Nc1ccccc1F [Compound No. 7, 1,1,3-Trimethyl-5-(2-fluorophenyl)biuret] | 4/4 | 75 | 62.5 | 1/4 | 76 | –
Cc1ccc(NC(=O)N(C)C(=O)N(C)C)cc1C [Compound No. 30, 1,1,3-Trimethyl-5-(3,4-dimethylphenyl)biuret] | 1/4 | – | – | – | 31 | ED50 (ddy strain of male mice [3]): 86 mg/kg
CCN(C)C(=O)N(C)C(=O)Nc1ccccc1 [Compound No. 45, 1-ethyl-1,3-dimethyl-5-phenylbiuret] | – | – | – | – | 49 | ED50 (ddy strain of male mice [3]): 100 mg/kg; Analgesic activity, acetic acid-induced stretching method, inhibitory ratio (ddy strain of male mice [1]; 80 mg/kg oral): 50%
CN(C)C(=O)N(C)C(=O)Nc1ccc(F)cc1 [compound 8, 1,1,3-Trimethyl-5-(4-fluorophenyl)biuret] | – | 62.5 | 87.5 | – | 61 | –
CN(C)C(=O)N(C)C(=O)Nc1ccccc1Cl [compound 10, 1,1,3-Trimethyl-5-(2-chlorophenyl)biuret] | 0/4 | 37.5 | – | – | 66 | ED50 (ddy strain of male mice [1]; Mus musculus, oral, Δ mark, range in parentheses): 135 mg/kg
CN(C)C(=O)N(C)C(=O)Nc1ccc(Cl)cc1Cl [compound 13, 1,1,3-Trimethyl-5-(2,4-dichlorophenyl)biuret] | 3/4 | 75 | 50 | 0/4 | 42 | –
CN(C)C(=O)N(C)C(=O)Nc1ccc(Cl)c(Cl)c1 [compound 14, 1,1,3-Trimethyl-5-(3,4-dichlorophenyl)biuret] | 3/4 | 62.5 | 50 | 1/4 | 43 | –
CN(C)C(=O)N(C)C(=O)Nc1c(Cl)cccc1Cl [compound 15, 1,1,3-Trimethyl-5-(2,6-dichlorophenyl)biuret] | – | 50 | 50 | – | 29 | –
CN(C)C(=O)N(C)C(=O)Nc1ccc(N(C)C)cc1 [compound 19, 1,1,3-Trimethyl-5-(4-dimethylaminophenyl)biuret] | 0/4 | 50 | 62.5 | – | 26 | –
CN(C)C(=O)N(C)C(=O)Nc1ccc(O)cc1 [compound 21, 1,1,3-Trimethyl-5-(4-hydroxyphenyl)biuret] | 3/4 | – | – | 0/4 | – | inhibition in vivo at 100 mg/kg (ddy strain of male mice [3]; [5]): 12.5%; inhibition in vivo at 100 mg/kg (ddy strain of male mice [1]; Mus musculus, po): 37.5%
COc1ccccc1NC(=O)N(C)C(=O)N(C)C [compound 22, 1,1,3-Trimethyl-5-(2-methoxyphenyl)biuret] | 2/4 | – | 37.5 | 0/4 | 13 | inhibition in vivo at 100 mg/kg (ddy strain of male mice [3]; [5]): 50%
COc1ccc(NC(=O)N(C)C(=O)N(C)C)cc1OC [compound 24, 1,1,3-Trimethyl-5-(3,4-dimethoxyphenyl)biuret] | 4/4 | 62.5 | 75 | 0/4 | 18 | –
Cc1cccc(NC(=O)N(C)C(=O)N(C)C)c1C [compound 29, 1,1,3-Trimethyl-5-(2,3-dimethylphenyl)biuret] | 4/4 | 25 | – | 1/4 | 40 | –
Cc1cccc(C)c1NC(=O)N(C)C(=O)N(C)C [compound 31, 1,1,3-Trimethyl-5-(2,6-dimethylphenyl)biuret] | – | 37.5 | 75 | – | 69 | –
Cc1c(Cl)cccc1NC(=O)N(C)C(=O)N(C)C [compound 32, 1,1,3-Trimethyl-5-(2-methyl-3-chlorophenyl)biuret] | 4/4 | 25 | 75 | 1/4 | 45 | –
CSc1ccc(NC(=O)N(C)C(=O)N(C)C)cc1 [compound 34, 1,1,3-Trimethyl-5-(4-methylthiophenyl)biuret] | 4/4 | – | 50 | 0/4 | – | –
CCCN(C(=O)Nc1ccccc1)C(=O)N(C)C [compound 37, 1,1-Dimethyl-3-n-propyl-5-phenylbiuret] | 0/4 | – | 37.5 | – | 12 | Analgesic activity, Haffner method, inhibitory ratio (ddy strain of male mice [3]; 200 mg/kg oral): 62.5%
CCCCNC(=O)N(C(=O)N(C)C)c1ccccc1 [compound 40] | 1/4 | – | – | 0/4 | – | inhibition in vivo at 100 mg/kg (ddy strain of male mice [3]; [5]): 62.5%; inhibition in vivo at 200 mg/kg (ddy strain of male mice [1]; Mus musculus, po): 62.5%
CCCCN(C)C(=O)N(C)C(=O)Nc1ccccc1 [compound 48, 1,3-Dimethyl-1-n-butyl-5-phenylbiuret] | 3/4 | 25 | 37.5 | 0/4 | 35 | –
CNC(=O)N(C)C(=O)N(c1ccccc1)c1ccccc1 [compound 65, 1,1-Diphenyl-3,5-dimethylbiuret] | 4/4 | – | – | 1/4 | – | inhibition in vivo at 100 mg/kg (ddy strain of male mice [3]; [5]): 50%; inhibition in vivo at 100 mg/kg (ddy strain of male mice [1]; Mus musculus, po): 12.5%
CN(C(=O)Nc1ccccc1)C(=O)N1CCCC1 [compound 68, 1,1-Tetramethylene-3-methyl-5-phenylbiuret] | – | – | – | – | 24 | inhibition in vivo at 100 mg/kg (ddy strain of male mice [1]; Mus musculus, po): 75%; Acute toxicity: death number of mice/number of mice tested (ddy strain of male mice [2]; mouse, in vivo): 2/4
O=C(NC(=O)N1CCCCC1)Nc1ccccc1 [compound 69, 1,1-Pentamethylene-5-phenylbiuret] | 0/4 | – | – | – | – | ED50 (ddy strain of male mice [3]): 115 mg/kg; inhibition in vivo at 200 mg/kg (ddy strain of male mice [1]; Mus musculus, po): 50%
CNC(=O)N(C)C(=O)N1CCOCC1 [compound 72, 1,1-(3-Oxapentamethylene)-3,5-dimethylbiuret] | 0/4 | – | – | – | – | inhibition in vivo at 100 mg/kg (ddy strain of male mice [3]; [5]): 25%; inhibition in vivo at 100 mg/kg (ddy strain of male mice [1]; Mus musculus, po): 50%
